The source made the active and inactive calls. The rule behind the calls is not given here.

Data on seven compounds can be found in ChEMBL document CHEMBL1649369, “Novel 4-aryl-pyrido[1,2-c]pyrimidines with dual SSRI and 5-HT(1A) activity. part 3” (Eur J Med Chem, 2011).

Test [1] relates to Mus musculus. The experiment in a line: Effect on hypothermia in Swiss albino mouse assessed as change in rectal body temperature at 10 mg/kg, ip after 60 mins by inducible hypothermia test. The class given is functional, organism-based. Also on record: dose 10 mg/kg.
Test [2] concerns Mus musculus. Briefly: Effect on hypothermia in Swiss albino mouse assessed as change in rectal body temperature at 20 mg/kg, ip dosed 15 mins after 0.1 mg/kg, sc WAY 100635 challenge measured after 30 mins by inducible hypothermia test. The class given is functional, organism-based.
Test [3] relates to Mus musculus. The experiment in a line: Antidepressant activity in Swiss albino mouse assessed as total immobility time at 20 mg/kg, ip administered 30 mins before test measured 6 mins test session after 2 mins habituation period by forced swimming test. The class given is functional, organism-based. Also on record: dose 20 mg/kg.
Test [4] relates to Mus musculus. The experiment in a line: Antidepressant activity in Swiss albino mouse assessed as total immobility time at 10 mg/kg, ip administered 30 mins before test measured 6 mins test session after 2 mins habituation period by forced swimming test. The arrangement: dose 10 mg/kg. The class given is functional, organism-based.
Test [5] concerns Mus musculus. Briefly: Effect on hypothermia in Swiss albino mouse assessed as change in rectal body temperature at 10 mg/kg, ip after 120 mins by inducible hypothermia test. The class given is functional, organism-based. The arrangement: dose 10 mg/kg.
Test [6] concerns Mus musculus. Briefly: Effect on hypothermia in Swiss albino mouse assessed as change in rectal body temperature at 20 mg/kg, ip after 30 mins by inducible hypothermia test. The class given is functional, organism-based. Also on record: dose 20 mg/kg.
The subject of test [7] is Mus musculus. The experiment in a line: Effect on hypothermia in Swiss albino mouse assessed as change in rectal body temperature at 20 mg/kg, ip after 60 mins by inducible hypothermia test. The arrangement: dose 20 mg/kg. The class given is functional, organism-based.
The subject of test [8] is Mus musculus. Briefly: Effect on hypothermia in Swiss albino mouse assessed as change in rectal body temperature at 10 mg/kg, ip after 90 mins by inducible hypothermia test. The class given is functional, organism-based. The arrangement: dose 10 mg/kg.
Test [9] deals with Mus musculus. The experiment in a line: Effect on hypothermia in Swiss albino mouse assessed as change in rectal body temperature at 5 mg/kg, ip after 30 mins by inducible hypothermia test. The class given is functional, organism-based. The arrangement: dose 5 mg/kg.
Test [10] has as its target T1, 5-hydroxytryptamine receptor 1A (Rattus norvegicus, UniProt P19327).
T1 sequence (P19327 whole entry): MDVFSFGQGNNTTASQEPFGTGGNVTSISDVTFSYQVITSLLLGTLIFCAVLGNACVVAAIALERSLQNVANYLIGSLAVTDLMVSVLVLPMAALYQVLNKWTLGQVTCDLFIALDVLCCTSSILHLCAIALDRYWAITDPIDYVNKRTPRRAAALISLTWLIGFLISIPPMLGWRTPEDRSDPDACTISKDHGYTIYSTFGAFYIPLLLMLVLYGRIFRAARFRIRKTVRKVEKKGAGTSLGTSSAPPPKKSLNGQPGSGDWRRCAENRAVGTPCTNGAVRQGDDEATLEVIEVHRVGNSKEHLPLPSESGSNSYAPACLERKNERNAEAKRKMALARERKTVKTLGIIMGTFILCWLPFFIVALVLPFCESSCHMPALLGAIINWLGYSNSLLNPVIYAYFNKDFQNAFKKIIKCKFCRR
Briefly: Displacement of [3H]8-OH-DPAT from 5-HT1A receptor in rat hippocampus. The class given is tissue-based. (In a radioligand displacement assay an active substance lowers the binding of a labelled ligand.)

The test system of test [11] is Mus musculus. Briefly: Effect on hypothermia in Swiss albino mouse assessed as change in rectal body temperature at 5 mg/kg, ip after 90 mins by inducible hypothermia test. The class given is functional, organism-based. Also on record: dose 5 mg/kg.
In test [12] the test system is Mus musculus. Briefly: Effect on hypothermia in Swiss albino mouse assessed as change in rectal body temperature at 20 mg/kg, ip after 90 mins by inducible hypothermia test. The class given is functional, organism-based. Also on record: dose 20 mg/kg.
The subject of test [13] is Mus musculus. Briefly: Effect on hypothermia in Swiss albino mouse assessed as change in rectal body temperature at 20 mg/kg, ip dosed 15 mins after 0.1 mg/kg, sc WAY 100635 challenge measured after 60 mins by inducible hypothermia test. The class given is functional, organism-based.
Test [14] deals with Mus musculus. Briefly: Effect on hypothermia in Swiss albino mouse assessed as change in rectal body temperature at 10 mg/kg, ip after 30 mins by inducible hypothermia test. The class given is functional, organism-based. The arrangement: dose 10 mg/kg.
In test [15] the target is Sodium-dependent serotonin transporter (Rattus norvegicus, UniProt P31652). The experiment in a line: Displacement of [3H]citalopram from SERT in rat cerebral cortex by liquid scintillation counting. The class given is tissue-based.
Sequence of Sodium-dependent serotonin transporter (P31652 whole entry): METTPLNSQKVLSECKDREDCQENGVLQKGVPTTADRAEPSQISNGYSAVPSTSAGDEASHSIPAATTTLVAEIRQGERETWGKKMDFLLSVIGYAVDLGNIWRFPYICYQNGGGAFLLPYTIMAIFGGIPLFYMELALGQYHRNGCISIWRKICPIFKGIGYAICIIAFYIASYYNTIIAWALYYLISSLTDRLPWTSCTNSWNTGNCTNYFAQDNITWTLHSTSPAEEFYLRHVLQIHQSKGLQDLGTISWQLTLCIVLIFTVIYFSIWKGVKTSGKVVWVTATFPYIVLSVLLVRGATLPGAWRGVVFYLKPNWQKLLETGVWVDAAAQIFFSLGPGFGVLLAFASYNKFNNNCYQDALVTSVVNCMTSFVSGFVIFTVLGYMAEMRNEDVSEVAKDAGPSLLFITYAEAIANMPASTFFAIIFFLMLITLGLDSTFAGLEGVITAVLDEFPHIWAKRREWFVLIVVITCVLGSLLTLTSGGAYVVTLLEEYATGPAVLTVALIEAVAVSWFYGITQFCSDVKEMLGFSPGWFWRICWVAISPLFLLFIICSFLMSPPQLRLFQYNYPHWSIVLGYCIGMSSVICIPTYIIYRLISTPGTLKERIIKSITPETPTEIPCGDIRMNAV
In test [16] the test system is Mus musculus. Briefly: Effect on hypothermia in Swiss albino mouse assessed as change in rectal body temperature at 5 mg/kg, ip after 120 mins by inducible hypothermia test. The class given is functional, organism-based. The arrangement: dose 5 mg/kg.
Test [17] has as its system Mus musculus. Briefly: Effect on hypothermia in Swiss albino mouse assessed as change in rectal body temperature at 5 mg/kg, ip after 60 mins by inducible hypothermia test. The class given is functional, organism-based. Also on record: dose 5 mg/kg.
The subject of test [18] is Mus musculus. The experiment in a line: Effect on hypothermia in Swiss albino mouse assessed as change in rectal body temperature at 20 mg/kg, ip after 120 mins by inducible hypothermia test. The class given is functional, organism-based. Also on record: dose 20 mg/kg.
Test [19] deals with Mus musculus. The experiment in a line: Reduction of 8-OH-DPAT-induced hypothermia in Swiss albino mouse at 0.1 mg/kg, ip administered 45 mins prior 8-OH-DPAT challenge measured after 15 mins by inducible hypothermia test. The class given is functional, organism-based. The arrangement: dose 0.1 mg/kg.
In test [20] the test system is Mus musculus. Briefly: Reduction of 8-OH-DPAT-induced hypothermia in Swiss albino mouse at 0.1 mg/kg, ip administered 45 mins prior 8-OH-DPAT challenge measured after 30 mins by inducible hypothermia test. The class given is functional, organism-based. The arrangement: dose 0.1 mg/kg.
The subject of test [21] is Mus musculus. Briefly: Effect on hypothermia in Swiss albino mouse assessed as change in rectal body temperature at 0.1 mg/kg, ip after 30 mins by inducible hypothermia test. Also on record: dose 0.1 mg/kg. The class given is functional, organism-based.
For test [22], the system named is Mus musculus. Briefly: Effect on hypothermia in Swiss albino mouse assessed as change in rectal body temperature at 0.1 mg/kg, ip after 90 mins by inducible hypothermia test. The class given is functional, organism-based. The arrangement: dose 0.1 mg/kg.
The test system of test [23] is Mus musculus. Briefly: Effect on hypothermia in Swiss albino mouse assessed as change in rectal body temperature at 5 mg/kg, ip dosed 15 mins after 0.1 mg/kg, sc WAY 100635 challenge measured after 60 mins by inducible hypothermia test. The class given is functional, organism-based.
Test [24] deals with Mus musculus. Briefly: Effect on hypothermia in Swiss albino mouse assessed as change in rectal body temperature at 0.1 mg/kg, ip after 60 mins by inducible hypothermia test. The class given is functional, organism-based. The arrangement: dose 0.1 mg/kg.
Test [25] deals with Mus musculus. The experiment in a line: Reduction of 8-OH-DPAT-induced hypothermia in Swiss albino mouse at 0.1 mg/kg, ip administered 45 mins prior 8-OH-DPAT challenge measured after 45 mins by inducible hypothermia test. The class given is functional, organism-based. The arrangement: dose 0.1 mg/kg.
For test [26], the system named is Mus musculus. The experiment in a line: Effect on hypothermia in Swiss albino mouse assessed as change in rectal body temperature at 0.1 mg/kg, ip after 120 mins by inducible hypothermia test. The class given is functional, organism-based. Also on record: dose 0.1 mg/kg.
Test [27] relates to Mus musculus. Briefly: Effect on hypothermia in Swiss albino mouse assessed as change in rectal body temperature at 5 mg/kg, ip dosed 15 mins after 0.1 mg/kg, sc WAY 100635 challenge measured after 30 mins by inducible hypothermia test. The class given is functional, organism-based.
The test system of test [28] is Mus musculus. The experiment in a line: Reduction of 8-OH-DPAT-induced hypothermia in Swiss albino mouse at 0.1 mg/kg, ip administered 45 mins prior 8-OH-DPAT challenge measured after 60 mins by inducible hypothermia test. The class given is functional, organism-based. The arrangement: dose 0.1 mg/kg.

As a reminder, the Ki is the dissociation constant of the complex between target and ligand, obtained from inhibition or displacement. With `COc1ccc(-c2c3n(c(=O)n(CCCCN4CCC(c5c[nH]c6ccccc56)CC4)c2=O)CCCC3)cc1`, the deltaT in [1] was -0.5 °C; in test [2], -0.3 °C; in test [5], -0.2 °C; in test [6], -1.6 °C; in test [7], -0.9 °C; in [8] it was -0.3 °C. Moreover, the deltaT in test [9] was -0.6 °C; in test [11], -0.2 °C; in [12], -0.5 °C; in test [13], -0.2 °C; in test [14] it was -0.8 °C; in [16], -0.2 °C. Further, the figures for the deltaT in [17] and in test [18] were -0.2 °C and -0.3 °C, respectively. The outcome in [3] and in test [4] was inactive. In addition, the Ki in test [10] was 32.4 nM; in test [15], 50.4 nM.

For `Cc1ccc(-c2c3n(c(=O)n(CCCCN4CCC(c5c(C)[nH]c6ccccc56)CC4)c2=O)CCCC3)cc1`, the Ki worked out at 279 nM in [10] and 1800 nM in test [15].

In the case of `COc1ccc(-c2c3n(c(=O)n(CCCCN4CCC(c5c(C)[nH]c6ccccc56)CC4)c2=O)CCCC3)cc1`, the Ki in [10] was determined as 153 nM; in test [15], 184 nM.

Regarding `Cc1ccccc1-c1c2n(c(=O)n(CCCCN3CCC(c4c[nH]c5ccccc45)CC3)c1=O)CCCC2`, the results for the Ki in test [10] and in test [15] were 112 nM and 69.1 nM, respectively.

Turning to `Cc1ccccc1-c1c2n(c(=O)n(CCCCN3CCC(c4c(C)[nH]c5ccccc45)CC3)c1=O)CCCC2`, the results for the Ki in test [10] and in test [15] were 642 nM and 882 nM, respectively.

Regarding `CC(C)NCC(O)COc1cccc2[nH]ccc12` (stereo not drawn), the deltaT was -0.1 °C in [19]; -0.1 °C in [20]; -0.2 °C in test [21]; -0.1 °C in test [22]; -0.1 °C in test [23]; -0.1 °C in [24]. Moreover, the deltaT in [25] was -0.1 °C; in test [26], -0.1 °C; in test [27] it was -0.2 °C; in test [28], -0.1 °C.

Turning to `COc1ccccc1-c1c2n(c(=O)n(CCCCN3CCC(c4c(C)[nH]c5ccccc45)CC3)c1=O)CCCC2`, the Ki came to 319 nM in test [10] and 1300 nM in test [15].
